IC50 and Ki data for 35 compounds are collected here from ChEMBL document CHEMBL1134159, “Sulfonylated aminothiazoles as new small molecule inhibitors of protein phosphatases” (Bioorg Med Chem Lett, 2001).

What is called IC50 is the point on the concentration scale where inhibition reaches its midpoint. By Ki is commonly meant a dissociation constant, usually derived from enzyme kinetics or from competition with a known ligand.

In experiment [1] the target is T1, M-phase inducer phosphatase 2 (Homo sapiens, UniProt P30305).
T1 sequence (P30305 whole entry): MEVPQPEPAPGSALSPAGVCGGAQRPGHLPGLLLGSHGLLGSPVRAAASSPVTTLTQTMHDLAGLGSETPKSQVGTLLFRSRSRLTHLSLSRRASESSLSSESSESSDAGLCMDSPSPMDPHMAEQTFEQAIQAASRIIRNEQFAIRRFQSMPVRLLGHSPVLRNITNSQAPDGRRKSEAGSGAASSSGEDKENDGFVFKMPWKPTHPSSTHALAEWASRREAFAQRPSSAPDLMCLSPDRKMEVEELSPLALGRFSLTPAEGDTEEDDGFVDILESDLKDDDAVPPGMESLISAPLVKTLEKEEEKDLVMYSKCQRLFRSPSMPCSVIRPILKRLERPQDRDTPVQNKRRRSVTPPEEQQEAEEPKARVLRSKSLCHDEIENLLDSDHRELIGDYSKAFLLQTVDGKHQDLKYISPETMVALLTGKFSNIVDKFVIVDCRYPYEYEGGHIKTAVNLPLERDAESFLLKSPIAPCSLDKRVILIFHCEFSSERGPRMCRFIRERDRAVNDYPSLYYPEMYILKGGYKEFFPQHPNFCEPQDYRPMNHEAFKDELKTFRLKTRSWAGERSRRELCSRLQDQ
Briefly: In vitro inhibitory activity against human recombinant Cdc25B phosphatase enzyme.

Experiment [2] has as its target T2, Tyrosine-protein phosphatase non-receptor type 1 (Homo sapiens, UniProt P18031).
T2 sequence (P18031 whole entry): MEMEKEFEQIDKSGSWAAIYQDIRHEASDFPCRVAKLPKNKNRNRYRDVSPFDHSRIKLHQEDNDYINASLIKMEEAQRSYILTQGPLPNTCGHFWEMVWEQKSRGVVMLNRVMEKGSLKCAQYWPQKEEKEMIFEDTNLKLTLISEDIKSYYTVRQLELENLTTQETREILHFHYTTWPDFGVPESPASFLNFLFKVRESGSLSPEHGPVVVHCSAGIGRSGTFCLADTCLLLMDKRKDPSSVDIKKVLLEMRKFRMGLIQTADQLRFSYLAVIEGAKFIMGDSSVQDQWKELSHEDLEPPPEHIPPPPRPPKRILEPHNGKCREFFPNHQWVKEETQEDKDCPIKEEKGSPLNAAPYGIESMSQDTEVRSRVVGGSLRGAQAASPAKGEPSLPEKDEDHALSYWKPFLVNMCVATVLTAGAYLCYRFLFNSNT
Briefly: In vitro inhibitory activity against human recombinant PTP1B phosphatase enzyme.

Experiment [3] deals with T3, Dual specificity protein phosphatase 3 (Homo sapiens, UniProt P51452). The experiment can be described thus: In vitro inhibitory activity against human recombinant VHR phosphatase enzyme.
T3 sequence (P51452 whole entry): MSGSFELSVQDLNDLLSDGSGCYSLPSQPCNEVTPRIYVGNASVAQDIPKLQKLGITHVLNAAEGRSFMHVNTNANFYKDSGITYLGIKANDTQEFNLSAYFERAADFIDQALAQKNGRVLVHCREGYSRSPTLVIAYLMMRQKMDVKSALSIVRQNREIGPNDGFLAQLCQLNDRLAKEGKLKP
In experiment [4] the target is T1, M-phase inducer phosphatase 2. The experiment can be described thus: Inhibitory activity against human recombinant Cdc25B phosphatase enzyme.
Experiment [5] has the same target. Briefly: In vitro inhibitory activity against human recombinant Cell division cycle 25B.
For experiment [6], the target named is T2, Tyrosine-protein phosphatase non-receptor type 1. Briefly: In vitro inhibitory activity against human recombinant Protein-tyrosine phosphatase 1B.
The target in experiment [7] is T3, Dual specificity protein phosphatase 3. Briefly: In vitro inhibitory activity against human recombinant Dual specificity protein phosphatase 3 enzyme.

On to `CCCc1sc(NS(=O)(=O)/C=C/c2ccc(F)c(F)c2)nc1-c1ccc(Cl)cc1`, for which the IC50 is 21 µM in experiment [1], 20 µM in experiment [2] and 20 µM in experiment [3].
Regarding `O=S(=O)(/C=C/c1ccc(C(F)(F)F)cc1)Nc1nc(-c2ccccc2)c(-c2ccccc2)s1`, the IC50 in experiment [1] was 34 µM; in experiment [2], 36 µM; in experiment [3] it was 25 µM.
As for `CCCc1sc(NS(=O)(=O)/C=C/c2ccc(C(F)(F)F)cc2)nc1-c1ccc(-c2ccccc2)cc1`, the results for the IC50 in experiment [1], in experiment [2] and in experiment [3] were 92 µM, greater than 100 µM and 42 µM, respectively.
`O=S(=O)(/C=C/c1ccc2ccccc2c1)Nc1nc(-c2ccccc2)c(-c2ccccc2)s1`: the values for the half-maximal inhibitory concentration (IC50) in experiment [1], in experiment [2] and in experiment [3] were 22 µM, 45 µM and 30 µM, respectively. For the same compound, the Ki in experiment [4] was found to be 36 µM.
Consider `O=[N+]([O-])c1ccc(/C=C/S(=O)(=O)Nc2nc(-c3ccccc3)c(-c3ccccc3)s2)cc1`, for which the figures for the IC50 in experiment [1], in experiment [2] and in experiment [3] were 54 µM, 58 µM and 47 µM, respectively.
In the case of `Cc1sc(NS(=O)(=O)/C=C/c2ccccc2Cl)nc1-c1ccc(Cl)cc1`, the IC50 in experiment [1], in experiment [2] and in experiment [3] was greater than 100 µM in each case.
Take `O=S(=O)(/C=C/c1ccc(-c2ccccc2)cc1)Nc1nc(-c2ccccc2)c(-c2ccccc2)s1`: the half-maximal inhibitory concentration (IC50) in experiment [1] was found to be 70 µM; in experiment [2], 90 µM; in experiment [3], 34 µM.
For `CCCc1sc(NS(=O)(=O)/C=C/c2ccc3ccccc3c2)nc1-c1ccc2ccccc2c1`, in that order: 69 µM, 98 µM and 34 µM.
In the case of `CCCCc1ccc(/C=C/S(=O)(=O)Nc2nc(-c3ccccc3)c(-c3ccccc3)s2)cc1`, the IC50 in experiment [1] was 58 µM; in experiment [2], greater than 100 µM; in experiment [3], 39 µM.
As to `CCCc1sc(NS(=O)(=O)/C=C/c2ccc(C)cc2)nc1-c1ccc(-c2ccccc2)cc1`, the results for the IC50 in experiment [1], in experiment [2] and in experiment [3] were 46 µM, 58 µM and 21 µM, respectively.
Regarding `COC(=O)c1ccc(/C=C/S(=O)(=O)Nc2nc(-c3ccccc3)c(-c3ccccc3)s2)cc1`, the IC50 in experiment [1] turned out to be 26 µM; in experiment [2] it was 59 µM; in experiment [3], 20 µM.
Consider `Cc1sc(NS(=O)(=O)/C=C/c2ccc(F)c(F)c2)nc1-c1ccc(Cl)cc1`, for which the IC50 in experiment [1] came out at 33 µM; in experiment [2] it was 51 µM; in experiment [3], 43 µM.
On to `CCCc1sc(NS(=O)(=O)/C=C/c2ccccc2Cl)nc1-c1ccc(C(F)(F)F)cc1`, for which the results for the IC50 in experiment [1], in experiment [2] and in experiment [3] were 14 µM, 10 µM and 25 µM, respectively.
Take `CCCc1sc(NS(=O)(=O)/C=C/c2ccccc2Cl)nc1-c1ccc(-c2ccccc2)cc1`: the values for the IC50 in experiment [1], in experiment [2] and in experiment [3] were greater than 100 µM, greater than 100 µM and 82 µM, respectively.
Consider `CCCc1sc(NS(=O)(=O)/C=C/c2ccc(C)cc2)nc1-c1ccc(Cl)cc1`, for which the figures for the IC50 in experiment [1], in experiment [2] and in experiment [3] were 34 µM, 32 µM and 48 µM, respectively.
`CCCc1sc(NS(=O)(=O)/C=C/c2ccc(F)c(F)c2)nc1-c1ccc(C(F)(F)F)cc1`: the IC50 stood at 25 µM in experiment [1], 29 µM in experiment [2] and 31 µM in experiment [3].
Consider `CCCCCCCCC/C=C/S(=O)(=O)Nc1nc(-c2ccccc2)c(-c2ccccc2)s1`, for which the IC50 in experiment [1] worked out at 33 µM; in experiment [2] it was 49 µM; in experiment [3] it was 24 µM.
Consider `CCc1sc(NS(=O)(=O)/C=C/c2ccc3ccccc3c2)nc1-c1ccccc1`, for which the IC50 in experiment [1] is 89 µM; in experiment [2], greater than 100 µM; in experiment [3], 32 µM.
As to `COc1ccc(/C=C/S(=O)(=O)Nc2nc(-c3ccccc3)c(-c3ccccc3)s2)cc1OC`, the IC50 in experiment [1], in experiment [2] and in experiment [3] was greater than 100 µM in each case.
Take `CCCc1sc(NS(=O)(=O)/C=C/c2ccc3ccccc3c2)nc1-c1ccc(-c2ccccc2)cc1`: the results for the IC50 in experiment [1], in experiment [2] and in experiment [3] were greater than 100 µM, greater than 100 µM and 57 µM, respectively.
With `CCCCCCCCCCc1sc(NS(=O)(=O)/C=C/c2ccccc2Cl)nc1-c1ccccc1`, the IC50 in experiment [1], in experiment [2] and in experiment [3] was greater than 100 µM in each case.
As for `CCc1sc(NS(=O)(=O)/C=C/c2ccc([N+](=O)[O-])cc2)nc1-c1ccccc1`, the IC50 in experiment [1] turned out to be 88 µM; in experiment [2] it was 83 µM; in experiment [3], 50 µM.
Consider `O=S(=O)(/C=C/c1ccccc1Cl)Nc1nc(-c2ccc(Cl)cc2)cs1`, for which the IC50 is 89 µM in experiment [1], greater than 100 µM in experiment [2] and greater than 100 µM in experiment [3].
Regarding `CCCCc1ccc(/C=C/S(=O)(=O)Nc2nc(-c3ccc(-c4ccccc4)cc3)c(CCC)s2)cc1`, the IC50 in experiment [1] is 80 µM; in experiment [2], greater than 100 µM; in experiment [3] it was 54 µM.
Turning to `CCCc1sc(NS(=O)(=O)/C=C/c2ccccc2Cl)nc1-c1ccc(Cl)cc1`, the values for the IC50 in experiment [1], in experiment [2] and in experiment [3] were 26 µM, 24 µM and 32 µM, respectively. Besides, in experiment [4], the Ki was found to be 4.6 µM.
On to `O=S(=O)(/C=C/c1ccco1)Nc1nc(-c2ccccc2)c(-c2ccccc2)s1`, for which the IC50 in experiment [1], in experiment [2] and in experiment [3] was greater than 100 µM each time.
Consider `N#Cc1ccc(/C=C/S(=O)(=O)Nc2nc(-c3ccccc3)c(-c3ccccc3)s2)cc1`, for which the IC50 in experiment [1] stood at 76 µM; in experiment [2] it was 58 µM; in experiment [3], 32 µM.
On to `CCCc1sc(NS(=O)(=O)/C=C/c2ccc(F)c(F)c2)nc1-c1ccc(-c2ccccc2)cc1`, for which the IC50 in experiment [5] was determined as 40 µM; in experiment [6] it was 77 µM; in experiment [7], 22 µM.
In the case of `O=S(=O)(/C=C/c1ccc(F)c(F)c1)Nc1nc(-c2ccccc2)c(-c2ccccc2)s1`, the IC50 is 72 µM in experiment [1], 85 µM in experiment [2] and 33 µM in experiment [3].
In the case of `CCc1sc(NS(=O)(=O)/C=C/c2ccc(S(C)(=O)=O)cc2)nc1-c1ccccc1`, the IC50 in experiment [1], in experiment [2] and in experiment [3] was greater than 100 µM throughout.
Consider `CCCc1sc(NS(=O)(=O)/C=C/c2ccc(-c3ccccc3)cc2)nc1-c1ccc(Cl)cc1`, for which the IC50 in experiment [1] was determined as 38 µM; in experiment [2], 35 µM; in experiment [3] it was 27 µM.
For `O=S(=O)(/C=C/c1ccccc1Cl)Nc1nc(-c2ccccc2)c(-c2ccccc2)s1`, in that order: 26 µM, 38 µM and 40 µM.
Consider `CCc1sc(NS(=O)(=O)/C=C/c2ccccc2Cl)nc1-c1ccccc1`, for which the IC50 in experiment [1], in experiment [2] and in experiment [3] was greater than 100 µM throughout.
Consider `CCCc1sc(NS(=O)(=O)/C=C/c2ccc(C)cc2)nc1-c1ccc(C(F)(F)F)cc1`, for which the IC50 in experiment [1] was found to be 20 µM; in experiment [2], 20 µM; in experiment [3] it was 31 µM.
Consider `Cc1ccc(/C=C/S(=O)(=O)Nc2nc(-c3ccccc3)c(-c3ccccc3)s2)cc1`, for which the IC50 in experiment [1], in experiment [2] and in experiment [3] was greater than 100 µM in each case.
